Reference: the supplement of paper PMC10307832

How the values were obtained:
Assay in all cases: relative viability (nuclei count vs DMSO), 5 days (fraction); higher = more cells survive
Quizartinib + Crizotinib = compound: CC(C)(C)c1cc(NC(=O)Nc2ccc(-c3cn4c(n3)sc3cc(OCCN5CCOCC5)ccc34)cc2)no1 [Quizartinib] + C[C@@H](Oc1cc(-c2cnn(C3CCNCC3)c2)cnc1N)c1c(Cl)ccc(F)c1Cl [Crizotinib] (partner 1 µM)
Method in brief: (§1)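 Lung cancer cell lines, seeded in 1536-well plates, were treated the following day by pin tool with a single drug or with five library-drug doses (not always all listed) in √10 steps on top of a fixed anchor-drug dose. Cells were fixed and nuclei stained in one step after 5 days, and nuclei were counted. Relative viability is the nuclei count for treated wells divided by that for vehicle wells, reported as medians of duplicate plates.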

Quizartinib + Linsitinib = compound: CC(C)(C)c1cc(NC(=O)Nc2ccc(-c3cn4c(n3)sc3cc(OCCN5CCOCC5)ccc34)cc2)no1 [Quizartinib] + C[C@]1(O)C[C@@H](c2nc(-c3ccc4ccc(-c5ccccc5)nc4c3)c3c(N)nccn32)C1 [Linsitinib] (partner 1 µM)
Method in brief: as §1

Quizartinib + Foretinib = compound: CC(C)(C)c1cc(NC(=O)Nc2ccc(-c3cn4c(n3)sc3cc(OCCN5CCOCC5)ccc34)cc2)no1 [Quizartinib] + COc1cc2c(Oc3ccc(NC(=O)C4(C(=O)Nc5ccc(F)cc5)CC4)cc3F)ccnc2cc1OCCCN1CCOCC1 [Foretinib] (partner 0.25 µM)
Method in brief: as §1

YM155 + Pictilisib = compound: COCC[n+]1c2c(n(Cc3cnccn3)c1C)C(=O)c1ccccc1C2=O [YM155] + CS(=O)(=O)N1CCN(Cc2cc3nc(-c4cccc5[nH]ncc45)nc(N4CCOCC4)c3s2)CC1 [Pictilisib] (partner 1 µM)
Method in brief: as §1

| Cell Line | relative viability (Quizartinib + Crizotinib; first compound 0.001 µM) | relative viability (Quizartinib + Crizotinib; first compound 0.003162 µM) | relative viability (Quizartinib + Crizotinib; first compound 0.01 µM) | relative viability (Quizartinib + Crizotinib; first compound 0.03162 µM) | relative viability (Quizartinib + Crizotinib; first compound 0.1 µM) | relative viability (Quizartinib + Linsitinib; first compound 0.001 µM) | relative viability (Quizartinib + Linsitinib; first compound 0.003162 µM) | relative viability (Quizartinib + Linsitinib; first compound 0.01 µM) | relative viability (Quizartinib + Linsitinib; first compound 0.03162 µM) | relative viability (Quizartinib + Linsitinib; first compound 0.1 µM) | relative viability (Quizartinib + Foretinib; first compound 0.001 µM) | relative viability (Quizartinib + Foretinib; first compound 0.003162 µM) | relative viability (Quizartinib + Foretinib; first compound 0.01 µM) | relative viability (Quizartinib + Foretinib; first compound 0.03162 µM) | relative viability (Quizartinib + Foretinib; first compound 0.1 µM) | relative viability (YM155 + Pictilisib; first compound 0.002 µM) | relative viability (YM155 + Pictilisib; first compound 0.006325 µM) | relative viability (YM155 + Pictilisib; first compound 0.02 µM) | relative viability (YM155 + Pictilisib; first compound 0.06325 µM) |
| --- | --- | --- | --- | --- | --- | --- | --- | --- | --- | --- | --- | --- | --- | --- | --- | --- | --- | --- | --- |
| H3255 | 0.736 | 0.86 | 1 | 0.834 | 0.868 | 0.854 | 0.826 | 1.01 | 0.896 | 1.06 | 0.874 | 0.84 | 1.14 | 1.07 | 0.763 | 0.483 | 0.5 | 0.477 | 0.424 |
| NCI-H1755 | 0.819 | 0.839 | 0.95 | 0.853 | 0.791 | 0.611 | 0.997 | 0.963 | 1 | 0.99 | 0.826 | 0.881 | 0.93 | 0.956 | 0.822 | 0.396 | 0.437 | 0.428 | 0.513 |
| IA-LM | 0.858 | 0.912 | 0.726 | – | 0.623 | 0.518 | 0.657 | 0.652 | 0.724 | 0.679 | 1.05 | 1.01 | 1.17 | 1.14 | 1.02 | 0.312 | 0.266 | 0.367 | 0.141 |
| NCI-H23 | – | 0.478 | 0.514 | 0.483 | 0.486 | – | 0.577 | 0.615 | 0.555 | 0.661 | – | 1.03 | 0.975 | 0.934 | 0.819 | 0.518 | 0.459 | 0.484 | 0.222 |
| NCI-H661 | 0.905 | 0.998 | 1.07 | – | 0.856 | 0.564 | 0.544 | 0.433 | 0.58 | 0.737 | 0.963 | 0.945 | 1.13 | 0.994 | 1.01 | 0.385 | 0.422 | 0.492 | 0.453 |
| PC-14 | 0.839 | 0.917 | 1.07 | 0.814 | 0.818 | 0.922 | 0.875 | 0.942 | 0.986 | 0.99 | 0.844 | 0.893 | 0.973 | 0.953 | 0.971 | 0.648 | 0.717 | 0.693 | 0.536 |
| NCI-H647 | 0.9 | 0.948 | 1.31 | 1.06 | 0.847 | 1.17 | 1.07 | 1.26 | 1.18 | 1.45 | 0.818 | 1.09 | 1.1 | 1.16 | 1.17 | 0.352 | 0.345 | 0.399 | 0.213 |
| NCI-H1792 | 0.743 | 0.978 | 1.04 | 0.958 | 0.995 | 0.334 | 0.496 | 0.602 | 0.466 | 0.587 | – | – | – | – | – | 0.331 | 0.289 | 0.318 | 0.267 |
| SW 900 | – | – | – | – | – | – | – | – | – | – | 0.802 | 0.85 | – | 0.882 | 0.836 | – | – | – | – |
| EKVX | 0.867 | 0.683 | 0.779 | 0.994 | 1.09 | 0.92 | 1 | 1.02 | 0.954 | 1.1 | 0.201 | 0.739 | 0.749 | 0.852 | 0.833 | 0.422 | 0.497 | 0.439 | 0.339 |
